According to US7772192B2, “Compositions and methods for treatment of disease with acetylated disaccharides” (The Regents of the University of California, priority 2003, dated 2010):

Tests used:
[1] = system: LLC cells adhering to recombinant P-selectin; experiment: Adhesion of LLC cells to immobilized P-selectin; type: cell-based
Text: LLC cells were “panned” onto wells precoated with recombinant P-selectin (R&D Systems, Minneapolis, M) as described (Brown et al., 2003; Fuster et al., Cancer Research 63: 2775-2781, 2003). The extent of adhesion was normalized to the value obtained for cells not treated with disaccharide. Controls included sialidase and anti-Ps monoclonal antibody treatment.

Blood cell counts = type: in vivo
[2] = system: LS180 cells adhering to recombinant P-selectin; experiment: Cell adhesion to immobilized P-selectin; type: cell-based, human; conditions: LS180 cells grown 5 days with disaccharide
Method: Cell adhesion to immobilized selectins. 96-well plates were coated overnight at 4° C. with recombinant E-selectin (4 μg/ml) or P-selectin (2 μg/ml) (R & D Systems) and blocked with 1% BSA/PBS. LS180 cells were grown for 5 days with various amounts of acetylated disaccharide, harvested, labeled with Calcein AM (5 μM, Molecular Probes) in DMEM/1% FBS, and allowed to settle at room temperature on selectin-coated wells (5×10^4 cells/well). Plates were then stirred at 75 rpm for 30 min (Orbit shaker, Lab-Line Instruments) followed by immersion upside-down in a vessel filled with Hank's buffered saline solution (HBSS, Sigma), which allowed non-adherent cells to fall under gravity. St John et al., J. Immunol Methods, 170: 159-166, 1994. The wells were then washed by aspiration using HBSS. LS180 cells were less adherent to P-selectin, so the immersion step was not necessary prior to washing. […] Fluorescence was measured using a 96-well fluorimeter (CytoFluor II), and the average of triplicate measurements was determined±standard error. Cell viability was judged to be >90% by Trypan blue exclusion at the end of each experiment.
Adhesion to selectins is altered in disaccharide-treated tumor cells. Treatment of LS180 cells with AcGnG-NM was not toxic to the cells up to 100 μM based on growth curves and exclusion of Trypan blue. […]

LLC cells = experiment: In vitro characterization of LLC cells (CSLEX-1 binding, lectin and PsIg flow cytometry); type: cell-based
Method: LLC cells were treated in culture for 4 days in the absence or presence of 50 μM peracetylated GlcNAcβ3Gal-NM. To quantitate sLex on the surface of LLC cells monoclonal antibody, CSLEX-1 binding to the cells was measured as described (Brown et al, J. Biol. Chem. 278: 23352-23359, 2003). […] Flow cytometry measures cell surface carbohydrate structures (Koenig et al, 1998). AAL and MAH are plant lectins. […] LLC cells have higher sialyltransferase activity than fucosyltransferase activity.

[3] = system: sialyl Lewis X in HL-60, LS180, murine Lewis lung carcinoma, B16 murine melanoma cells; experiment: Inhibition of sialyl Lewis X formation in cultured cells; type: cell-based
Text: The disaccharides can be acylated with, e.g., acetyl, butyryl or benzoyl groups to reduce their hydrophilicity and make them permeable to cell membranes. […] The various disaccharides described above and their acylated or aryl derivatives are logical extensions of the present invention. In addition, analogs of the above compounds in which critical hydroxyl groups are missing or alkylated would bind to glycosyltransfersase and inhibit their activity.

LS180 cells = experiment: Metastatic lung tumor formation in SCID mice (LS180); type: in vivo
Method: Tumor formation. LS180 cells were grown in the presence or absence of 50 μM AcGnG-NM for 6 days, harvested with EDTA, and resuspended in sterile PBS. Approximately 3×10^5 tumor cells in 150 μl PBS were injected into the lateral tail vein of anesthetized 7 week-old immunodeficient mice (Fox Chase SCID; Charles River). The mice were then maintained in microbe-free housing with free access to standard laboratory chow and water, and inspected regularly for any signs of distress. After 4 weeks, mice were euthanized by CO2 asphyxiation under anesthesia, and lungs, livers, brains, kidneys/adrenals, and spleens were fixed in Bouin's solution (Sigma) for 6 hr followed by transfer to 70% ethanol. Lungs for each animal were inspected under a dissecting microscope for the total number of surface tumors. Histologic sections (hematoxylin/eosin) were examined for tumor foci, and representative photomicrographs were taken. The other organs were also reviewed histologically for any tumor foci.
Impairment of metastatic tumor formation. Prior studies have shown that deletion of P-selectin in mice alters the tumorigenicity of hematogenously distributed LS180 cells. Kim et al., Proc. Natl. Acad. Sci. USA, 95: 9325-9330, 1998. […] After 4 weeks, the animals were sacrificed and formation of lung tumor foci was assessed at necropsy by counting nodules on the lung surface and in histologic sections.

[4] = system: HAL8 human metastatic lung adenocarcinoma cells; experiment: Metastatic lung tumor formation in SCID mice (HAL8); type: in vivo

Substance: GlcNAcβ1,3Galβ-O-naphthalenemethanol [AcGnG-NM]
- cell adhesion to immobilized P-selectin [1]: moderate reduction
- levels of blood cell components (Blood cell counts; in vivo): not affected
- Lymphocytes (Blood cell counts; n = 13): 6.1 ± 2.1 K/μL
- Neutrophils (Blood cell counts; n = 13): 1.5 ± 0.5 K/μL
- Platelets (Blood cell counts; n = 13): 1031 ± 174 K/μL
- Red Blood Cells (Blood cell counts; n = 13): 10.5 ± 0.9 M/μL
- Total Leukocytes (Blood cell counts; n = 13): 7.8 ± 2.6 K/μL
- adhesion to recombinant P-selectin [2]: reduced the ability of LS180 cells to adhere
- sLex expression (CSLEX-1 binding) (LLC cells; 50 μM, 4 days): reduces sLex expression
- AAL reactivity (fucose) (LLC cells; flow cytometry): reduces AAL reactivity
- sialylation (MAH) (LLC cells; flow cytometry): no effect on sialylation
- formation of sialyl Lewis X [3]: inhibit the formation of sialyl Lewis X
- lung tumor foci (LS180 cells; cells pretreated with 50 μM for 6 days, 4 weeks, n=8, p<0.0002): less numerous
- tumor size (LS180 cells; treated versus untreated cells): approximately the same
- lung tumor foci [4]: behaved similarly
